In patent publication US20210038661A1, “TREATMENT OF TUMORS BY A COMBINATION OF AN ONCOLYTIC ADENOVIRUS AND A CDK4/6 INHIBITOR” (KLINIKUM RECHTS DER ISAR DER TECHNISCHEN UNIVERSITÄT MÜNCHEN, priority 2018, published 2021):

Assays:
UMUC3 cells [1] = assay: IC-80 value of PARPi in UMUC3 cells; type: cell-based; conditions: Homo sapiens
Description: Seeding of UMUC-3: 3000 cells were seeded per well in 12-well plates and grown over-night in DMEM Medium containing 10% FCS at 37° C. Inhibitor-treatment of cell occurred 24 h past seeding and again 1 hour after infection by adding indicated concentration to the medium. Infection of cells took place 24 h past inhibitor-treatment. Fixation and SRB-staining took place at 1-6 days post infection (dpi: days post infection). 160 nM PARPi correspond to the IC-80 value in UMUC3 cells.

T24 cells [2] = assay: IC-80 value of PARPi in T24 cells; type: cell-based; conditions: Homo sapiens, T-24
Description: 3000 T24 cells were seeded per well in 12-well plates and grown over-night in RPMI Medium containing 10% FCS at 37° C. Inhibitor-treatment of cells occurred 24 h past cell seeding and again 1 hour after infection by adding indicated concentration to the medium. Infection of cells took place 24 h past inhibitor-treatment in 250 μl Medium without serum. Fixation and SRB-staining took place at 1-5 days post infection (dpi: days post infection). 15 nM PARPi correspond to the IC-80 value in T24 cells.

dl703 = assay: DNA-replication analysis of dl703 in UMUC cells treated with cell cycle inhibitors (fiber qPCR); type: cell-based, Mastadenovirus, Type C, Serotype 5
Description: To investigate the differences in replication of d1703 (Mantwill et al. 2013, Journal of Translational Medicine, 11, 216) under different treatment conditions, DNA-replication analysis was performed. 100.000 UMUC cells were seeded in 6-well plates and grown in DMEM medium containing 10% FCS in 5% CO2 conditions at 37° C. 24 hours post seeding cells were treated for 24 hours with 10 μM Lee (Ribociclib), 1 μM CI-1040, 10 μM Nutlin-3a and 10 μM Roscovertine and again after infection adding an appropriate amount of inhibitors to the medium. Infection with 50 MOI dl703 (Mastadenovirus, Type C, Serotype 5 with a 3.2 kb sized deletion in E1 region) took place 24 hours post treatment. After 4 and 48 hours post infection DNA were isolated and qPCR was performed using specific primers for the viral fiber gene. Fiber fwd. 5′-[…]-3′; Fiber rev. 5′-[…]-3′.

UMUC3 cells [3] = assay: Cell cycle analysis (EdU/PI flow cytometry) of UMUC3 cells; type: cell-based, human; conditions: 48 hours; Roscovetine 10 μM, CI-1040 1 μM, Nutlin-3a 10 μM, LEE011 10 μM
Description: FIG. 10 is a bar diagram showing cell cycle distribution in UMUC3 cells, measured 48 hours post treatment, whereby the concentrations of the CDK4/6 inhibitors was as follows: Roscovetine: 10 μM, CI-1040: 1 μM, Nutlin-3a: 10 μM, and LEE011: 10 μM.
For cell cycle analysis cells were seeded in 6 well plates (2,5×10E4 c/well). 8 hours before infection with dl703, cells were treated with indicated concentration of cell cycle inhibitors. After infection with 10 MOI dl703 cells were again treated for 48 hours. Untreated cells and dl703 infected cells only, served as control. 48 h post infection cells were harvest by trypsinization and fixed with 80% ethanol while vortexing. To investigate the cell cycle status, fixed cells were centrifuged 5 min at RT and 300 g and ethanol was aspirated. Cells were resuspended and washed with 1%BSA-PBS (Bovine Serum Albumin) and again centrifuged. Cells were stained with EDU and cell cycle analysis were performed using the Click-iT™ Plus EdU Flow Cytometry Assay Kits, Catalog nos. C10632 from Thermo Fischer. In addition, after 3× times washing with 1% BSA/PBS cells were stained with PI (Propidium Iodine, 50 μg/ml). Measurement was directly performed after staining with a FACScalibur Flow Cytometry System. Data was analyzed with FlowJo software.

UMUC cells = assay: Western blot of Rb, phRB and E2F-1 in UMUC cells treated with cell cycle inhibitors; type: cell-based, human; conditions: 24 hours post-treatment; for Rb, phRB and E2F-1 expression: indicated concentrations
Description: Western Blot analysis of UMUC cells treated with indicated concentrations of CI-1040, Roscovitine, Nutlin-3a and LEE011 (Ribociclib). 1×10^6 cells were seeded in 10 cm dishes. 24 hours post-treatment proteins were isolated using 1% SDS buffer, to achieve the disruption of the nuclear membrane. All samples were drawn up several times into a syringe to disrupt the DNA and subsequently centrifuged at 30000 rpm at 4° C. for 30 minutes. The supernatant was transferred to a new reaction tube and directly used for further steps or stored at −80° C. To separate the proteins a sodium dodecyl sulfate polyacrylamide gel electrophoresis was performed. By means of electrophoresis for approximately two hours at 100V at 4° C., 40 μg of total proteins were loaded and probed against specific indicated antibodies.

T24 cells [4] = assay: Potency assay (SRB) of T24 cells, XVir-N-31, Palbociclib and JQ-1; type: cell-based, human
Description: 5000 T24 cells were seeded in 12 well plates and grown in 1 ml RPMI-Medium containing 10% FCS. Next day cells were treated with 500 nM Palbociclib and 300 nM JQ-1. 24 hours post treatment cells were infected with indicated MOIs of XVir-N-31 in 200 μl RPMI-Medium containing no FCS. After 1 hour 800 μl RPMI-Medium containing 10% FCS were added into each well. In addition, 500 nM Palbociclib and 300 nM JQ-1 were added to the medium. SRB-Staining took place 5 days post infection. Mock treated cells were set 100% cell survival.

SK-N-MC cells [5] = assay: Potency assay (SRB) of SK-N-MC cells, XVir-N-31, Abemaciclib and JQ1; type: cell-based; conditions: 500 nM JQ1 added to 200 nM Abemaciclib, XVir-N-31, 5 days post infection
Description: FIG. 16 is a bar diagram showing the result of a potency assay of SK-N-MC cells 5 days after exposure to XVir-N-31 alone, with 200 nM abemaciclib, 500 nM JQ1 or a combination of 200 nM abemaciclib and 500 nM JQ1, as percentage cell survival, whereby the cells were either not infected or infected with an MOI of 5, 10 or 20.
100.000 SK-N-MC cells/well were seeded in 12-well plates and grown in RPMI Medium containing 10% FCS at 5% CO2 at 37° C. Cells were treated with 200 nM Abemaciclib+500 nM JQ1 24 hours before and again 1 hour post infection by adding appropriate amount to the medium. Infection of XVir-N-31 took place in 500 μl in RPMI Medium without serum. SRB-Staining took place 5 days post infection. Mock treated cells were set 100% cell survival.

SK-N-MC cells [6] = assay: Cell cycle distribution (propidium iodine) of SK-N-MC cells; type: cell-based; conditions: 48 hours post treatment
Description: 48 hours post treatment cells were washed twice took place with PBS (containing RNase A,100 U/ml). Cells were trypsinized and centrifuged at 1500 rpm, 4° C. for 5 min. Cells are fixed by adding slowly 1 ml of ice-cold 80% Ethanol drop by drop to the pellet and incubated overnight. Staining was performed by adding 1 ml of staining solution (Propidium Iodine,50 μg/ml) to the cells and incubating 30-60 min at RT with gentle rocking. MK: MK-1775; LY: LY-2835219.

RT112 = assay: IC50 concentration of PD-0332991 in bladder cancer cell line RT112; type: cell-based; conditions: Homo sapiens, RT-112
Description: (§1) The class of CDK4/6 inhibitors as subject to Example 5 requires expression of RB. Therefore, three RB positive and two RB negative bladder cancer derived cell lines were used and the cells treated with the combination therapy. Cell lines were pretreated for 24 hours with an IC50 concentration of PD-0332991 (T24: 500 nM, RT112: 2000 nM, 253J: 100 nM) and infected with XVir-N-31(T24 M0150, 253J MOI 25, RT112 MOI450). Values are the average of at least 2 independent experiments. Error bars show the standard error. Four dpi, cell viability was measured using SRB assays (a, c). (b, d) Lysates of cells were prepared 3 dpi and a titer test was performed on Hek293 cells. Viral titer is shown as fold change relative to control

253J = assay: IC50 concentration of PD-0332991 in bladder cancer cell line 253J; type: cell-based; conditions: Homo sapiens
Description: as §1

T24 = assay: IC50 concentration of PD-0332991 in bladder cancer cell line T24; type: cell-based; conditions: Homo sapiens, T-24
Description: as §1

In the case of `Cn1ncnc1[C@H]1c2n[nH]c(=O)c3cc(F)cc(c23)N[C@@H]1c1ccc(F)cc1` [BMN673], the IC80 (UMUC3 cells [1]) is reported as 160 nM and the IC80 (T24 cells [2]) is reported as 15 nM.
For `O=C(NOCC1CC1)c1ccc(F)c(F)c1Nc1ccc(I)cc1Cl` [CI-1040], the “viral DNA replication of dl703” value (dl703; 1 μM, 50 MOI dl703) was “much lower compared to Ribociclib treated cells”, the cell cycle distribution (UMUC3 cells [3]) was “clear G1-arrest” and the “E2F-1 as well as Rb and phRb expression” value (UMUC cells; 1 μM) was “induced inhibition”.
For `Cc1sc2c(c1C)C(c1ccc(Cl)cc1)=N[C@@H](CC(=O)OC(C)(C)C)c1nnc(C)n1-2` [JQ1, thieno-triazolo-1-4-diazepine], the “cell killing capacity of XVir-N-31” value (T24 cells [4]; 300 nM JQ-1 with 500 nM Palbociclib, low MOIs, 5 days post infection) was “increased the cell killing capacity”, the “cell killing of XVir-N-31” value (T24 cells [4]; mono-therapy with 300 nM JQ1, 10 and 20 MOI) was “did not increase cell killing” and the cell killing (SK-N-MC cells [5]) was “did not increase cell killing”.
With `CN(C)C(=O)c1cc2cnc(Nc3ccc(N4CCNCC4)cn3)nc2n1C1CCCC1` [LEE011, ribociclib] the “increase of viral DNA replication of dl703” value (dl703; 10 μM, 50 MOI dl703, 48 hours post infection) was about 100 fold, the cell cycle distribution (UMUC3 cells [3]) was “clear G1-arrest” and the “E2F-1 as well as Rb and phRb expression” value (UMUC cells; 10 μM) was “induced inhibition”.
In the case of `CCN1CCN(Cc2ccc(Nc3ncc(F)c(-c4cc(F)c5nc(C)n(C(C)C)c5c4)n3)nc2)CC1` [LY-2835219, abemaciclib], the cell cycle distribution (SK-N-MC cells [6]) is reported as “no effect”.
`C=CCn1c(=O)c2cnc(Nc3ccc(N4CCN(C)CC4)cc3)nc2n1-c1cccc(C(C)(C)O)n1` [MK-1775] was tested, and the cell cycle distribution (SK-N-MC cells [6]; 500 nM, alone) was “increase of cells in G2/M”.
`COc1ccc(C2=N[C@@H](c3ccc(Cl)cc3)[C@@H](c3ccc(Cl)cc3)N2C(=O)N2CCNC(=O)C2)c(OC(C)C)c1` [Nutlin-3a] was tested, and the cell cycle distribution (UMUC3 cells [3]) was “only little or no effect” and the “Rb, phRB and E2F-1 expression” value (UMUC cells) was “no pronounced effect”.
In the case of `CC(=O)c1c(C)c2cnc(Nc3ccc(N4CCNCC4)cn3)nc2n(C2CCCC2)c1=O` [PD-0332991, palbociclib], the IC50 (RT112) is reported as 2000 nM, the IC50 (253J) is reported as 100 nM and the IC50 (T24) is reported as 500 nM.
In the case of `CC[C@H](CO)Nc1nc(NCc2ccccc2)c2ncn(C(C)C)c2n1` [Roscovitine], the cell cycle distribution (UMUC3 cells [3]) is reported as “slight increase of G2/m arrested cells” and the “Rb, phRB and E2F-1 expression” value (UMUC cells) is reported as “no pronounced effect”.
